Experimental data from US8772343B2, “Chemical compounds” (Pfizer Limited, priority 2010, dated 2014).
Structures can show the parent of a compound that is named as a salt.

Key:
[1] = biological target: T1, Nav1.7 (or SCN9A) channel (Homo sapiens, UniProt Q15858); assay: Nav1.7 Ionworks Quattro automated electrophysiology in HEK cells expressing hSCN9A; assay type: cell-based; conditions: estimated IC50, values marked (IW), Ionworks Quattro assay, read-out: Nav1.7 EIC50 (IW)
T1 construct: expressed in transfected cells
Experimental: The ability of the compounds of formula (I) to block the Nav1.7 (or SCN9A) channel were measured using the assay described below. Human Embryonic Kidney (HEK) cells were transfected with an hSCN9A construct using lipofectamine reagent (Invitrogen), using standard techniques. Cells stably expressing the hSCN9A constructs were identified by their resistance to G-418 (400 μg/ml). Clones were screened for expression using the whole-cell voltage-clamp technique. HEK cells stably transfected with hSCN9A were maintained in DMEM medium supplemented with 10% heat-inactivated fetal bovine serum and 400 μg/ml G-418 in an incubator at 37° C. with a humidified atmosphere of 10% CO2. For HTS, cells were harvested from flasks by trypsinization and replated in an appropriate multi-well plate (typically 96 or 384 wells/plate) such that confluence would be achieved within 24 hours of plating. For electrophysiological studies, cells were removed from the culture flask by brief trypsinization and re-plated at low density onto glass cover slips. Cells were typically used for electrophysiological experiments within 24 to 72 hours after plating. Electrophysiological assays were also conducted using the Ionworks Quattro automated electrophysiological platform (Molecular Devices Corp). Intracellular and extracellular solutions were as described above with the following changes, 120 μg/ml amphotericin was added to the intracellular solution to perforate the membrane and allow electrical access to the cells. hSCN9A cells were grown and harvested as for PatchXpress and cells were resuspended in extracellular solution at a concentration of 1×10^6 cells/ml. The onboard liquid handling facility of the Ionworks Quattro was used for dispensing cells and application of test compounds. A voltage protocol was then applied that comprised of a voltage step to fully inactivate the sodium channels, followed by a brief hyperpolarized recovery period to allow partial recovery from inactivation for unblocked sodium channels, followed by a test depolarized voltage step to assess magnitude of inhibition by test compound. Compound effect was determined based on current amplitude difference between the pre-compound addition and post-compound addition scans. Compounds of the Examples were tested in the assays described above and found to have the Nav1.7 EIC50 (uM) values specified in the table below. All data are derived from the PatchXpress assay unless expressly stated otherwise.

[2] = biological target: T1, Nav1.7 (or SCN9A) channel; assay: Nav1.7 PatchXpress automated whole-cell electrophysiology in HEK cells expressing hSCN9A; assay type: cell-based; conditions: estimated IC50 from single point data, PatchXpress assay, held at V1/2 of inactivation, read-out: Nav1.7 EIC50
Outline: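 Stably transfected HEK cells recorded by whole-cell patch clamp (conventional or PatchXpress) at room temperature (22-24 °C) in pH 7.4 HEPES-buffered saline. Current evoked by a 20 msec step to 0 mV after an 8 s prepulse at the measured inactivation V1/2. Single-concentration % inhibition converted to estimated IC50 (EIC50); inhibition values <20% or >80% excluded.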

T1 sequence (Q15858 whole entry): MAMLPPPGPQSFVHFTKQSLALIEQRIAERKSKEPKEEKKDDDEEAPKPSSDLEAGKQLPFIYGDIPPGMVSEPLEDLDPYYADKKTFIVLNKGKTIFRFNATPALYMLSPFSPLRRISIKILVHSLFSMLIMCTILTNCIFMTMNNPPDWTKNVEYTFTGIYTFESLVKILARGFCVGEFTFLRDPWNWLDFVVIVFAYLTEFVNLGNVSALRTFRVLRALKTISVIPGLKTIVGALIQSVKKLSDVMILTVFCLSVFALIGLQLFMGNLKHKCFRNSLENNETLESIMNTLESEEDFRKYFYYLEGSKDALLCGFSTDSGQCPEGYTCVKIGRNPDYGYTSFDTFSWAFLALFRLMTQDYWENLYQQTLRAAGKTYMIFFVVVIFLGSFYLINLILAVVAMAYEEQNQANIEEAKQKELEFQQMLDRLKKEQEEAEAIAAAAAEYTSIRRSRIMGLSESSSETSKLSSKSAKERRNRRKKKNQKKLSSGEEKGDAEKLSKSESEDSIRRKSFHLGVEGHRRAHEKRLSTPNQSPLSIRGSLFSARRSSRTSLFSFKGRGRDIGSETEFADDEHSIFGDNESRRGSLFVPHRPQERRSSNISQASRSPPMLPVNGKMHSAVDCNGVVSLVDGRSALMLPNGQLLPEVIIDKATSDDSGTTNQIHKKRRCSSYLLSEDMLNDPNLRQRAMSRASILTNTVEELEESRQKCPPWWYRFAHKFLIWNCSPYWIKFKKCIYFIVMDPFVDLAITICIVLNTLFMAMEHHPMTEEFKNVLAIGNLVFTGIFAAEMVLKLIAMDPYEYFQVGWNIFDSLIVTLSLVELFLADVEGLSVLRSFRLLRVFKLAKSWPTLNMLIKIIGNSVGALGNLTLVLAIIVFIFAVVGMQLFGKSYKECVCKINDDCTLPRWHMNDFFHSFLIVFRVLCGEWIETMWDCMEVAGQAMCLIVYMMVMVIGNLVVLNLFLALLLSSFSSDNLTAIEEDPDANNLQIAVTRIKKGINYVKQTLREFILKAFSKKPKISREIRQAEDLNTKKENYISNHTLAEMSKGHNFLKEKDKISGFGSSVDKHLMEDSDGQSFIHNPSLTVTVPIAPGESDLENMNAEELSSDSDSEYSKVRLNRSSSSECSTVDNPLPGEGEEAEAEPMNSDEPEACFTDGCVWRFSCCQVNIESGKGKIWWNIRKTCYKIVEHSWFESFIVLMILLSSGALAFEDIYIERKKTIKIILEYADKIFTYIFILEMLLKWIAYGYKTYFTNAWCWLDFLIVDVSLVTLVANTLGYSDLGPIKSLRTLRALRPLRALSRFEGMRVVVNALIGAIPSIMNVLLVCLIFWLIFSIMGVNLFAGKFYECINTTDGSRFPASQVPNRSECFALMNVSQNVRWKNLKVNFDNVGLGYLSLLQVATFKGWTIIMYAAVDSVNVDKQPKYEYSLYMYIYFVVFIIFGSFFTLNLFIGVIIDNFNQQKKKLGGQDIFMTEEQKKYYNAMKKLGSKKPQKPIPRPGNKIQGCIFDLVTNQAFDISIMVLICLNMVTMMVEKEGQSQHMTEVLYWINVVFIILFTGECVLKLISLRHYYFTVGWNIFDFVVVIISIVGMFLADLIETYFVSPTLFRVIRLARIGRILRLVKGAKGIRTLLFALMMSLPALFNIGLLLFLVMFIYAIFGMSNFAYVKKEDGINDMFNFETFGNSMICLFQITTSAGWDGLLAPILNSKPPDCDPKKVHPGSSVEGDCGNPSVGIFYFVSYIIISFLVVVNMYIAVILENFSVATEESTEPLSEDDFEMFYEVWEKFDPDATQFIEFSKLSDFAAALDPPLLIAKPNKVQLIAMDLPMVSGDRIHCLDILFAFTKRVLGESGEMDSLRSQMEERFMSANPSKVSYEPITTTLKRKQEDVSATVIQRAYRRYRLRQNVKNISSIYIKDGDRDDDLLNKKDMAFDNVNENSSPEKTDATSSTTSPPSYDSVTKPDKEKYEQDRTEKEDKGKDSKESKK

Structure (SMILES)	IC50 [1] [µM]	IC50 [2] [nM]
CS(=O)(=O)NC(=O)c1ccc(Oc2ccc(Cl)cc2)c(-c2cccc(C(F)(F)F)c2)c1 [Example 13, 6-(4-chlorophenoxy)-N-(methylsulfonyl)-3′-(trifluoromethyl)biphenyl-3-carboxamide]	24	–
CS(=O)(=O)NC(=O)c1ccc(Oc2ccc(Cl)cc2)c(-c2ccc(C#N)cc2)c1 [Example 25, 6-(4-chlorophenoxy)-4′-cyano-N-(methylsulfonyl)-biphenyl-3-carboxamide]	10	–
CS(=O)(=O)NC(=O)c1ccc(Oc2ccc(Cl)cc2)c(-c2cccc(C#N)c2)c1 [Example 26, 6-(4-chlorophenoxy)-3′-cyano-N-(methylsulfonyl)-biphenyl-3-carboxamide]	17	–
CS(=O)(=O)NC(=O)c1ccc(Oc2ccc(Cl)cc2)c(-c2cccc(OC(F)(F)F)c2)c1 [Example 28, 6-(4-chlorophenoxy)-N-(methylsulfonyl)-3′-(trifluoromethoxy)biphenyl-3-carboxamide]	16	–
COc1ncc(-c2cc(C(=O)NS(C)(=O)=O)ccc2Oc2ccc(Cl)cc2)cn1 [Example 40, 4-(4-chlorophenoxy)-3-(2-methoxypyrimidin-5-yl)-N-(methylsulfonyl)benzamide]	69	–
Cc1ncc(-c2cc(C(=O)NS(C)(=O)=O)ccc2Oc2ccc(Cl)cc2)cn1 [Example 46, 4-(4-chlorophenoxy)-3-(2-methylpyrimidin-5-yl)-N-(methylsulfonyl)benzamide]	151	–
COc1ncccc1-c1cc(C(=O)NS(C)(=O)=O)ccc1Oc1ccc(OC(F)(F)F)cc1 [Example 93, 3-(2-methoxypyridin-3-yl)-N-(methylsulfonyl)-4-[4-(trifluoromethoxy)phenoxy]benzamide]	–	66
COc1ncccc1-c1cc(C(=O)NS(C)(=O)=O)ccc1Oc1cnc(C2CC2)c(Cl)c1 [Example 94, 4-(5-chloro-6-cyclopropylpyridin-3-yloxy)-3-(2-methoxypyridin-3-yl)-N-(methylsulfonyl)benzamide]	–	400
CCc1cc(Oc2ccc(C(=O)NS(C)(=O)=O)cc2-c2ccn[nH]2)ccc1Cl [Example 95, 4-(4-chloro-3-ethylphenoxy)-N-(methylsulfonyl)-3-(1H-pyrazol-5-yl)benzamide hydrochloride salt]	–	100

Results, then the compound that gave them:

IC50 [1] [µM]	IC50 [2] [nM]	Structure (SMILES)
13	–	CS(=O)(=O)NC(=O)c1ccc(Oc2ccc(Cl)cc2)c(-c2cccc(F)c2)c1 [Example 17, 6-(4-chlorophenoxy)-3′-fluoro-N-(methylsulfonyl)-biphenyl-3-carboxamide]
28	–	CS(=O)(=O)NC(=O)c1ccc(Oc2ccc(Cl)cc2)c(-c2cccnc2)c1 [Example 19, 4-(4-chlorophenoxy)-N-(methylsulfonyl)-3-pyridin-3-ylbenzamide]
15	–	CS(=O)(=O)NC(=O)c1ccc(Oc2ccc(Cl)cc2)c(-c2cccc(Cl)c2)c1 [Example 22, 3′-chloro-6-(4-chlorophenoxy)-N-(methylsulfonyl)-biphenyl-3-carboxamide]
18	–	CS(=O)(=O)NC(=O)c1ccc(Oc2ccc(Cl)cc2)c(-c2cn[nH]c2)c1 [Example 30, 4-(4-chlorophenoxy)-N-(methylsulfonyl)-3-(1H-pyrazol-4-yl)benzamide]
17	–	CS(=O)(=O)NC(=O)c1ccc(Oc2ccc(Cl)cc2)c(-c2cncc(C#N)c2)c1 [Example 44, 4-(4-chlorophenoxy)-3-(5-cyanopyridin-3-yl)-N-(methylsulfonyl)benzamide]
